Test results as given in patent US8569327B2, “Phenanthroindolizidine derivative and NFκB inhibitor containing same as active ingredient” (Kabushiki Kaisha Yakult Honsha, priority 2008, dated 2013).
Values after ≈ are worked out from the molar mass of the structure shown. Like-named read-outs stand apart in the source and are kept apart here.

Key:
[1] = system: human colon cancer SW480 cells; test: Inhibitory action on the proliferation of SW480 cells; type: cell-based; settings: 48 hours, TetraColor ONE; for IC50: Homo sapiens, SW480
Protocol: (§1) The action of the phenanthroindolizidine alkaloid compound of the present invention on the proliferation of human colon cancer SW480 cells, HT-29 cells, and human non-small cell lung cancer A549 cells was studied. The SW480 cells were suspended in a 10% FBS/RPMI1640 and then seeded in a 96-well microplate, followed by culturing in 5% CO2 at 37° C. (2000 cells/well). The A549 cells and the HT-29 cells were each suspended in a DMEM medium containing 10% FBS, 100 U/mL penicillin, and 100 μg/mL streptomycin (10% FBS/DMEM) and a DMEM F-12 HAM medium containing 10% FBS, 100 U/mL penicillin, and 100 μg/mL streptomycin (10% FBS/DMEM F12 HAM), and then seeded in 96-well microplates, followed by culturing in 5% CO2 at 37° C. (1000 cells/well). After an overnight culture, the compound of the present invention was added, followed by further culturing for 48 hours (SW480 cells) and 96 hours (A549 cells and HT-29 cells). After culturing, the number of viable cells was counted using TetraColor ONE (Seikagaku Corporation) in accordance with the attached operating procedure. The results were expressed as the concentration of a test compound needed for 50% inhibition of the proliferation of the cells (IC50).

[2] = system: human colon cancer HT-29 cells; test: Inhibitory action on the proliferation of HT-29 cells; type: cell-based; settings: 96 hours, TetraColor ONE; for IC50: Homo sapiens, HT-29
Protocol: as §1

SV40 promoter = SV40 promoter activity, luciferase assay in SW480/SV40-Luc cells; type: cell-based, human; settings: for IC50: Homo sapiens
Excerpt: (§2) The action of the phenanthroindolizidine alkaloid compound of the present invention on the NFκB activity was studied using a luciferase assay. Human colon cancer SW480 cells were transfected with pNFκB-Luc Plasmid (Stratagene), which is a reporter vector in which a five-time tandem repeat of the NFκB responsive element (NRE) is integrated into the upstream of the luciferase gene, using Lipofectamine 2000 (Invitrogen Corporation) in accordance with the attached operating procedure. Subsequently, the cells were cultured in an RPMI1640 medium containing 10% FBS, 100 U/mL penicillin, 100 μg/mL streptomycin, and 0.5 mg/mL G418 to produce SW480 cells having the luciferase gene, the expression of which is regulated by NRE, stably introduced therein (SW480/NRE-Luc cells). Likewise, SW480 cells were transfected with pGL3-Control Vector (Promega Corporation), which is a reporter vector in which the SV40 promoter is integrated into the upstream of the luciferase gene, to produce SW480 cells having the luciferase gene, the expression of which is regulated by the SV40 promoter, stably introduced therein (SW480/SV40-Luc cells). The SW480/NRE-Luc cells or the SW480/SV40-Luc cells were suspended in an RPMI1640 medium containing 10% FBS, 100 U/mL penicillin, and 100 μg/mL streptomycin (10% FBS/RPMI1640), and then seeded in a 96-well microplate, followed by culturing under conditions of 5% CO2 and at 37° C. (5000 cells/well). After an overnight culture, the compound of the present invention was added, followed by culturing for one hour. Further, 50 ng/mL TNFα (Sigma-Aldrich Corporation) was added, followed by culturing for four hours. Subsequently, a Steady-Glo Luciferase Assay reagent (Promega Corporation) was added, and the luminescent intensity was detected by SpectraMax M5e (Molecular Devices, Inc.) to measure the intracellular luciferase activity. It is to be noted that the action of the compound of the present invention on the NFκB activity or the SV40 promoter activity was shown as IC50 values (the concentration of a test compound needed for 50% inhibition of the induction of the luciferase expression).

NFκB = test: Inhibitory action on the NFκB activity, luciferase assay in SW480/NRE-Luc cells; type: cell-based, human; settings: for IC50: Homo sapiens
Excerpt: as §2

[3] = system: human non-small cell lung cancer A549 cells; test: Inhibitory action on the proliferation of A549 cells; type: cell-based; settings: 96 hours, TetraColor ONE; for IC50: Homo sapiens, A549
Protocol: as §1

[4] = SW480, read-out: SV40 promoter inhibitory activity IC50
[5] = SW480, read-out: NFκB inhibitory activity IC50
[6] = SW480/SV40-Luc cells, luciferase
[7] = SW480/NRE-Luc cells, compound 1 h then 50 ng/mL TNFα 4 h, luciferase

SMILES | IC50 [1] [ng/mL] | IC50 [2] [ng/mL] | IC50 (SV40 promoter; [4]) [ng/mL] | IC50 (NFκB; [5]) [ng/mL] | IC50 [3] [ng/mL] | SW480 proliferation inhibitory action IC50 [1] [ng/mL] | HT-29 proliferation inhibitory action IC50 [2] [ng/mL] | SV40 promoter inhibitory activity IC50 (SV40 promoter; [6]) [ng/mL] | NFκB inhibitory activity IC50 (NFκB; [7]) [ng/mL] | A549 proliferation inhibitory action IC50 [3] [ng/mL] | IC50 (SV40 promoter; SW480/SV40-Luc cells, luciferase, read-out: SV40 promoter inhibitory activity IC50) [ng/mL] | IC50 (NFκB; SW480/NRE-Luc cells, compound 1 h then 50 ng/mL TNFα 4 h, luciferase, read-out: NFκB inhibitory activity IC50) [ng/mL]
COc1cc2c3c(c4ccccc4c2cc1OC)[C@H](O)[C@@H]1CCCN1C3.Cl [Compound 1, (12aS,13S)-6,7-dimethoxy-9,10,11,12,12a,13-hexahydro-9a-aza-cyclopenta[b]triphenylene-13-ol hydrochloride] | 5.1 | 3.7 | > 1000 | 2.7 | 2.6 |  |  |  |  |  |  | 
CCc1ccc2c3c(c4cc(OC)c(OC)cc4c2c1)CN1CCC[C@H]1[C@H]3O.Cl [Compound 3, (12aS,13S)-3-ethyl-6,7-dimethoxy-9,10,11,12,12a,13-hexahydro-9a-aza-cyclopenta[b]triphenylene-13-ol hydrochloride] | 219 | 50.8 | > 10000 | 105 | 24.5 |  |  |  |  |  |  | 
COc1cc2c3c(c4ccc(F)cc4c2cc1OC)[C@H](O)[C@@H]1CCCN1C3.Cl [Compound 5, (12aS,13S)-3-fluoro-6,7-dimethoxy-9,10,11,12,12a,13-hexahydro-9a-aza-cyclopenta[b]triphenylene-13-ol hydrochloride] | 39.2 | 7.2 | > 1000 | 20.7 | 4.1 |  |  |  |  |  |  | 
COc1cc2c3c(c4ccc(OC(=O)C(C)C)cc4c2cc1OC)[C@H](O)[C@@H]1CCCN1C3.Cl [Compound 9, isobutyric acid(12aS,13S)-13-hydroxy-6,7-dimethoxy-9,10,11,12,12a,13-hexahydro-9a-aza-cyclopenta[b]triphenylene-3-yl ester hydrochloride] |  |  |  |  |  | 0.36 | 0.38 | >100 | 0.26 | 0.57 |  | 
COc1cc2c3c(c4ccc(OC(=O)C(C)(C)C)cc4c2cc1OC)[C@H](O)[C@@H]1CCCN1C3.Cl [Compound 10, 2,2-dimethyl-propionic acid(12aS,13S)-13-hydroxy-6,7-dimethoxy-9,10,11,12,12a,13-hexahydro-9a-aza-cyclopenta[b]triphenylene-3-yl ester hydrochloride] |  |  |  |  |  | 0.73 | 0.47 | >100 | 0.49 | 0.14 |  | 
COc1cc2c3c(c4ccc(OC(=O)c5cccnc5)cc4c2cc1OC)[C@H](O)[C@@H]1CCCN1C3.Cl [Compound 11, nicotinic acid(12aS,13S)-13-hydroxy-6,7-dimethoxy-9,10,11,12,12a,13-hexahydro-9a-aza-cyclopenta[b]triphenylene-3-yl ester hydrochloride] |  |  |  |  |  | 0.50 | 0.44 | >10 | 0.48 | 0.028 |  | 
COc1cc2c3c(c4ccc(OC(=O)c5ccncc5)cc4c2cc1OC)[C@H](O)[C@@H]1CCCN1C3.Cl [Compound 12, isonicotinic acid(12aS,13S)-13-hydroxy-6,7-dimethoxy-9,10,11,12,12a,13-hexahydro-9a-aza-cyclopenta[b]triphenylene-3-yl ester hydrochloride] |  |  |  |  |  | 0.51 | 0.62 | >100 | 0.33 | 0.19 |  | 
CCC(=O)Oc1ccc2c3c(c4cc(OC)c(OC)cc4c2c1)CN1CCC[C@H]1[C@H]3O.Cl [Compound 15, propionic acid(12aS,13S)-13-hydroxy-6,7-dimethoxy-9,10,11,12,12a,13-hexahydro-9a-aza-cyclopenta[b]triphenylene-3-yl ester hydrochloride] |  |  |  |  |  | 0.39 | 0.62 | >100 | 0.20 | 0.35 |  | 
COc1cc2c3c(c4ccc(NC(=O)OCC(C)C)cc4c2cc1OC)[C@H](O)[C@@H]1CCCN1C3.Cl [Compound 18, ((12aS,13S)-13-hydroxy-6,7-dimethoxy-9,10,11,12,12a,13-hexahydro-9a-aza-cyclopenta[b]triphenylene-3-yl)-carbamic acid isobutyl ester hydrochloride] | 27.6 | 18.1 | > 1000 | 15.5 | 16.2 |  |  |  |  |  |  | 
COc1cc2c3c(c4ccc(OC(=O)c5ccoc5)cc4c2cc1OC)[C@H](O)[C@@H]1CCCN1C3.Cl [Compound 22, furan-3-carboxylic acid(12aS,13S)-13-hydroxy-6,7-dimethoxy-9,10,11,12,12a,13-hexahydro-9a-aza-cyclopenta[b]triphenylene-3-yl ester hydrochloride] |  |  |  |  |  | 2.8 | 1.9 | >1000 | 1.7 | 1.1 |  | 
COc1cc2c3c(c4ccc(OC(=O)c5ccsc5)cc4c2cc1OC)[C@H](O)[C@@H]1CCCN1C3.Cl [Compound 23, thiophene-3-carboxylic acid(12aS,13S)-13-hydroxy-6,7-dimethoxy-9,10,11,12,12a,13-hexahydro-9a-aza-cyclopenta[b]triphenylene-3-yl ester hydrochloride] |  |  |  |  |  | 3.1 | 1.4 | >100 | 4.1 | 0.76 |  | 
COc1cc2c3c(c4ccc(OC(=O)CCCCCCC(=O)Oc5ccc6c7c(c8cc(OC)c(OC)cc8c6c5)CN5CCC[C@H]5[C@H]7O)cc4c2cc1OC)[C@H](O)[C@@H]1CCCN1C3.Cl [Compound 24, octanedionic acid(9S,12S)-13-hydroxy-6,7-dimethoxy-9,10,11,12,12a,13-hexahydro-9a-aza-cyclopenta[b]triphenylene-3-yl ester(12aS,13S)-13-hydroxy-6,7-dimethoxy-9,10,11,12,12a,13-hexahydro-9a-aza-cyclopenta[b]triphenylene-3-yl ester hydrochloride] |  |  |  |  |  | 0.77 | 0.24 | >100 | 0.90 | 0.18 |  | 
COc1cc2c3c(c4ccc(N)cc4c2cc1OC)[C@H](O)[C@@H]1CCCN1C3.Cl [Compound 25, (12aS,13S)-3-amino-6,7-dimethoxy-9,10,11,12,12a,13-hexahydro-9a-aza-cyclopenta[b]triphenylene-13-ol hydrochloride] | 2.3 | 0.28 | > 100 | 1.1 | 0.4 |  |  |  |  |  |  | 
S=C(S)N1CCCC1 [PDTC, pyrrolidine dithiocarbamate, reference compound] |  |  |  |  |  |  |  |  |  |  | > 10000 | 2400 (≈ 16.3 µM)
